What is called inhibition is how much of the control response was suppressed. Usually MIC stands for the smallest concentration in the dilution series that meets the test's criterion for growth inhibition.

Assay [1] has as its system beta-lactamase from Escherichia coli 51A129. The assay is described as follows: Inhibition of ampicillin hydrolysis by cell-free beta-lactamase (microiodometric). In kind it is biochemical. The following applies: ampicillin 33 μM, pH 6.5, 37° C. Here is the method:
(§1) The compounds of the present invention are thus evaluated in vitro by the ability of penicillanic acid 1,1-dioxide derivatives of the formula (IV) to inhibit the hydrolysis of beta-lactam antibiotics by beta-lactamase enzymes. The hydrolysis of ampicillin was determined by the microiodometric method of Novick [Biochem, J. 83, 236 (1962)]. Conditions for this assay are 0.5 M potassium phosphate, pH 6.5 and 37° C. Reactions were initiated by the addition of the cell-free beta-lactamase, except in the case of preincubation experiments in which the inhibitor and enzyme were incubated together in the assay mixture for 10 minutes before initiation of the reaction by addition of substrate. With the cellfree extracts of Staphylococcus aureus, Escherichia coli, Klebsiella pneumoniae and Pseudomonas aeruginosa, the substrate was ampicillin at 33 micro M (13 microg./ml). Typical specific activities of the beta-lactamase preparations were, respectively, 6,019, 88,970, 260 and 76 micromol/hr. per mg. of protein.
(§2) Cell-free extracts were prepared by sonic treatment (using three 30-s bursts at 4° C. except for S. aureus, which was broken with a French press) of cultures grown in brain heart infusion on a rotary shaker incubator. For the S. aureus, P. aeruginose, and E. cloacae strains, de novo synthesis of beta-lactamase was induced by growing a log-phase culture in the presence of a sublethal concentration of penicillin G at 100, 1,000, and 300 microg./ml, respectively, for 2.5 hr.

Assay [2] has as its system beta-lactamase from Klebsiella pneumoniae 53A129. Described as above. In kind it is biochemical. The following applies: ampicillin 33 μM, pH 6.5, 37° C. Here is the method: as §1, §2
Assay [3] deals with T1, beta-lactamase from Staphylococcus aureus 01A400 (Staphylococcus aureus, UniProt P00807).
T1 construct: Cell-free extracts were prepared by sonic treatment; endogenous in cells; host or cells: Staphylococcus aureus strain 01A400, induced with penicillin G; cell-free extract by French press
T1 sequence (P00807 25-281): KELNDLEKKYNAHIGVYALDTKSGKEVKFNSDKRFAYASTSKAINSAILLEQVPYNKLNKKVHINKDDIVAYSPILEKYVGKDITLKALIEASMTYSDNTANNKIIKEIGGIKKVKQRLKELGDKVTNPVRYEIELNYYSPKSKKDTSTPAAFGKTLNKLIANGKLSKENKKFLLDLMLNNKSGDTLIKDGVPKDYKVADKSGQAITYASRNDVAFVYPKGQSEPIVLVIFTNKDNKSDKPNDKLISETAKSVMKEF
The assay is described as above. In kind it is biochemical. Here is the method:
as §1, §2

For assay [4], the target named is beta-lactamase from Pseudomonas aeruginosa 52A104 (Pseudomonas aeruginosa, UniProt P24735). The assay is described as above. Format: biochemical. The note with it: ampicillin 33 μM, pH 6.5, 37° C., read-out: % Inhibition Beta-Lactam Hydrolysis. Here is the method:
as §1, §2

For assay [5], the system named is Citrobacter diversus 70C031. The assay is described as follows: Minimum inhibitory concentration on BHI agar. The following applies: 18 hrs., 37° C., inhibitor alone or 1:1 mixture with ampicillin. Format: cell-based. Here is the method:
(§3) The procedure which follows is the one recommended by the International Collaborative Study on Antibiotic Sensitivity Testing [Ericcson and Sherris, Acta. Pathologica et Microbiologia Scandinav, Supp. 217, Sections A and B: 64-68 (1971)], and employs brain heart infusion (BHI) agar and the inocula replicating device. Overnight growth tubes are diluted 100 fold for use as the standard inoculum (20,000-10,000 cells in approximately 0.002 ml are placed on the agar surface; 20 ml of BHI agar/dish). Twelve 2 fold dilutions of the test compound are employed, with initial concentration of the test drug being 200 mcg/ml. Single colonies are disregarded when reading tubes after 18 hrs. at 37° C.
(§4) These MIC's are then compared with the MIC values obtained with a combination of ampicillin and the beta-lactamase inhibitor. […] The MIC values of combinations are measured using the method described by Barry and Sabath in "Manual of Clinical Microbiology", edited by Lenette, Spaulding and Truant, 2nd Edition, 1974, American Society for Microbiology.

The subject of assay [6] is Enterobacter cloacae 67B009. The assay is described as follows: Minimum inhibitory concentration on BHI agar. Format: cell-based. The note with it: 18 hrs., 37° C., inhibitor alone or 1:1 mixture with ampicillin. Here is the method:
as §3, §4

The test system of a further assay is Escherichia coli 51A266. The assay is described as follows: Minimum inhibitory concentration on BHI agar. Format: cell-based. The note with it: 18 hrs., 37° C., inhibitor alone or 1:1 mixture with ampicillin. Here is the method: as §3, §4
For assay [7], the system named is Klebsiella pneumoniae 53A079. The assay is described as follows: Minimum inhibitory concentration on BHI agar. In kind it is cell-based. The following applies: 18 hrs., 37° C., inhibitor alone or 1:1 mixture with ampicillin. Here is the method:
as §3, §4

The next assay deals with Proteus morgani 57G001. The assay is described as follows: Minimum inhibitory concentration on BHI agar. In kind it is cell-based. The following applies: 18 hrs., 37° C., inhibitor alone or 1:1 mixture with ampicillin. Here is the method: as §3, §4
Assay [8] deals with Pseudomonas aeruginosa 52A104. The assay is described as follows: Minimum inhibitory concentration on BHI agar. Format: cell-based. The following applies: 18 hrs., 37° C., inhibitor alone or 1:1 mixture with ampicillin. Here is the method:
as §3, §4

Assay [9] concerns Serratia marcescens 63A095. The assay is described as follows: Minimum inhibitory concentration on BHI agar. The note with it: 18 hrs., 37° C., inhibitor alone or 1:1 mixture with ampicillin. Format: cell-based. Here is the method: as §3, §4
Assay [10] relates to Staphylococcus aureus 01A005. The assay is described as follows: Minimum inhibitory concentration on BHI agar. Format: cell-based. The following applies: 18 hrs., 37° C., inhibitor alone or 1:1 mixture with ampicillin. Here is the method:
as §3, §4

Assay [11] relates to Staphylococcus aureus 01A400. The assay is described as follows: Minimum inhibitory concentration on BHI agar. Format: cell-based. The following applies: 18 hrs., 37° C., inhibitor alone or 1:1 mixture with ampicillin. Here is the method: as §3, §4
Setting [12] is: pH 6.5, read-out: % Inhibition Beta-Lactam Hydrolysis.

Like-named read-outs stand apart in the source and are kept apart here.

beta-lactamase from Pseudomonas aeruginosa 52A104, sequence (P24735 27-397): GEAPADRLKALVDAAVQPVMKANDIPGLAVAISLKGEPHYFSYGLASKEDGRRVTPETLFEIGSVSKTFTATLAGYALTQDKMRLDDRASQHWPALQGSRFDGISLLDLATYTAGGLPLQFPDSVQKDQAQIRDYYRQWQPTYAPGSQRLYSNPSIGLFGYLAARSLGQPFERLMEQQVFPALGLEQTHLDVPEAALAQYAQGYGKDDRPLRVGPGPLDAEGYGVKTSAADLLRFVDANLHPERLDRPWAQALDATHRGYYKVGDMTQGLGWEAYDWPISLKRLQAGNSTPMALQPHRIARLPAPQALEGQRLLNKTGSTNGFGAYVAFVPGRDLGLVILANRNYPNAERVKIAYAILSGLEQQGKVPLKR

As to `CC1(C)[C@H](C(=O)O)N2C(=O)[C@@H](CO)[C@H]2S1(=O)=O` [A, 6-beta-(Hydroxymethyl)pencillanic acid 1,1-dioxide], the “% Inhibition Beta-Lactam Hydrolysis” value in assay [1] (inhibitor 0.67 μM) turned out to be 92.1%; in assay [1] (inhibitor 1.0 μM), 95.7%; in assay [1] (inhibitor 16.5 μM) it was 100%; in assay [1] (inhibitor 66 μM), 100%; in [2] (inhibitor 1.0 μM), 81.2%; in assay [2] (inhibitor 16.5 μM), 100%. Also, the “% Inhibition Beta-Lactam Hydrolysis” value in [2] (inhibitor 66 μM) turned out to be 100%. For the same compound, in assay [3] (inhibitor 1.0 μM, ampicillin 33 μM, pH 6.5, 37° C., read-out: % Inhibition Beta-Lactam Hydrolysis), the inhibition at 1 µM worked out at 39.3%. In assay [3] (inhibitor 16.5 μM, ampicillin 33 μM, pH 6.5, 37° C., read-out: % Inhibition Beta-Lactam Hydrolysis), the inhibition at 16.5 µM was 78.8%. Further, the inhibition at 66 µM in [3] (inhibitor 66 μM, ampicillin 33 μM, pH 6.5, 37° C., read-out: % Inhibition Beta-Lactam Hydrolysis) amounted to 98.3%.
For the compound `CC1(C)[C@H](C(=O)O)N2C(=O)C[C@H]2S1(=O)=O` [B, Penicillanic acid 1,1-dioxide], the “% Inhibition Beta-Lactam Hydrolysis” value in assay [1] (inhibitor 1.0 μM) is 97.0%; in assay [1] (inhibitor 16.5 μM) it was 100%; in [1] (inhibitor 66 μM), 100%; in assay [2] (inhibitor 16.5 μM) it was 100%; in assay [2] (inhibitor 66 μM), 100%. In addition, the results for the inhibition at 16.5 µM in [4] (inhibitor 16.5 μM) and in [3] (setting [12]) were 5% and 95%, respectively. In addition, the inhibition at 66 µM in assay [4] (inhibitor 66 μM) is 27.5%; in assay [3] (setting [12]), 100%. In addition, the inhibition at 1 µM in assay [3] (setting [12]) amounted to 0%. Further, the MIC was 200 µg/mL in [5]; 100 µg/mL in assay [6]; 25 µg/mL in the assay on Escherichia coli 51A266; 50 µg/mL in assay [7]; 200 µg/mL with Proteus morgani 57G001; above 200 µg/mL in assay [8]. In addition, the figures for the MIC in assay [9], in assay [10] and in [11] were 200 µg/mL, 100 µg/mL and 200 µg/mL, respectively.
